According to patent US20210322651A1, “SUPPRESSION OF NEOINTIMAL FORMATION FOLLOWING VASCULAR SURGERU USING CDK8 INHIBITORS” (Senex Biotechnology, Inc., priority 2014, published 2021):

Key:
[1] = system: resident VSCs (Sca-1+, NFM+, Sox17+ cells) in jugular vein isografts; assay: Immunofluorescence staining of VSC and SMC markers (Sca-1, Ki67, SMA, NFM, Sox17) in jugular vein isografts after drug treatment; format: in vivo, C57BL/6J mice
Protocol: Male C57BL/6J mice were purchased from Vital River Laboratory Animal Technology Co. Ltd, Beijing, China, and housed under a 12:12 h light-dark cycle and given free access to food and water. All animal experiments were performed according to National Institutes of Health Guidelines for the Care and Use of Laboratory Animals and approved by the Institutional Animal Care and Usage Committees at Shandong University and the University of South Carolina, USA. The jugular vein transplantation was performed using different male C57BL/6J mice as donors and recipients. Briefly, 12-wk-old male C57BL/6J mice were anesthetized with pentobarbital sodium (50 mg/kg body weight, i.p.). The operation was performed under a dissecting microscope (SZ2-ILST, Olympus Corporation, Tokyo, Japan). The right common carotid artery of a male C57BL/6J mouse was mobilized and divided. […]
(§1) Tissue sections were subjected to hematoxylin and eosin (H&E) or immunofluorescence staining as previously described^41. […] Fluorescent images were acquired by Nikon Eclipse Ti or UltraVIEW®VOX confocal microscope and analyzed with the Volocity software (PerkinElmer, Waltham, Mass., USA). […]

Sca-1+ VSCs = assay: Sca-1+ cell growth in stem cell growth medium (daily cell count for 8 days; [3H]thymidine uptake); format: cell-based, mouse
Protocol: Aortic adventitial Sca-1^+ cells were isolated and cultured as previously described^24. Briefly, the aortic arch and root together with a proportion of the heart from male 8-wk-old C57BL/6J mice were removed. Under a dissection microscope, adventitial tissues were carefully harvested. The adventitial tissues were cut into pieces (about 0.5 mm^3) and explanted onto a 3.5 cm dish in a CO2 incubator at 37° C. for 2 h. The stem cell growth medium (CellGro SCGM, CellGenix, Germany) containing 10% FBS (Gibco, USA), 10 ng/ml leukemia inhibitory factor (Lif) (Millipore, Temecula, Calif., USA) and 0.1 mmol/L 2-mercaptoethanol (Invitrogen, USA) was added and incubated for 5-7 days. Medium was changed every 2 days. […] The purity and viability of isolated Sca-1^+ cells were evaluated by immunostaining and trypan blue exclusion, respectively. […]
The P5 Sca-1^+ VSCs or P32 RASMCs were serum-starved for 24 h, and then cultured with full stem cell or regular growth medium with or without simvastatin for 24 h. […] The radioactivity was measured as previously described^41.
P7 Sca-1^+ VSCs (4×10^4/well) were seeded in stem cell medium (SCGM+10% FBS+10 ng/ml Lif+0.1 mmol/L 2-mercaptoethanol) with or without simvastatin (3 μmol/L) or Senexin A (2.5 μmol/L) in 6-well plates. […] The number of cells was counted daily for 8 days.

rat aortic SMCs (RASMCs) = assay: RASMC proliferation ([3H]thymidine uptake); format: cell-based
Protocol: Rat aortic SMCs (RASMCs) were isolated from the thoracic aorta and cultured as described elsewhere^40. Enzymatically isolated SMCs from adult male Wistar rats were cultured in high glucose (4.5 g/L) Dulbecco's modified Eagle's medium (DMEM) (Cat#: 11995, Invitrogen, Grand Island, N.Y., USA) with 10% FBS (Invitrogen) in a CO2 incubator at 37° C. Subculture was performed when the cells were grown to the 70˜80% confluent state. We used the RASMCs at passage (P) 32 to do the [^3H]thymidine uptake assay. The P5 Sca-1^+ VSCs or P32 RASMCs were serum-starved for 24 h, and then cultured with full stem cell or regular growth medium with or without simvastatin for 24 h. [^3H]thymidine (1 μCi/ml) were added during the last 4 h of culture. The radioactivity was measured as previously described^41. […] Serum-starved RASMCs at passage 32 were treated with or without 10% FBS and Senexin (Senx A, 2.5 μM) for 24 h. n=4, *p<0.05 vs. control (−) in the same group.

jugular vein isografts = assay: Neointimal formation in jugular vein isografts (cuff model; H&E and SMA staining, morphological analysis); format: in vivo, C57BL/6J mice
Protocol: Male C57BL/6J mice were purchased from Vital River Laboratory Animal Technology Co. Ltd, Beijing, China, and housed under a 12:12 h light-dark cycle and given free access to food and water. All animal experiments were performed according to National Institutes of Health Guidelines for the Care and Use of Laboratory Animals and approved by the Institutional Animal Care and Usage Committees at Shandong University and the University of South Carolina, USA. The jugular vein transplantation was performed using different male C57BL/6J mice as donors and recipients. Briefly, 12-wk-old male C57BL/6J mice were anesthetized with pentobarbital sodium (50 mg/kg body weight, i.p.). The operation was performed under a dissecting microscope (SZ2-ILST, Olympus Corporation, Tokyo, Japan). The right common carotid artery of a male C57BL/6J mouse was mobilized and divided. A 1-mm cuff with a 1-mm handle (0.65 mm in diameter outside and 0.5 mm inside, F 800/200/100/200, Portex Ltd) was placed on both ends of the artery, and the ends were reverted over the cuff and ligated with an 8-0 silk ligature (130715, 130715, LingQiao). External jugular vein (1 cm) from a donor mouse was harvested and washed with saline solution, and grafted between the 2 ends of the carotid artery without changing the direction of blood flow. The ischemia time of vein segments was less than 15 min. The results are shown in Examples 7-9.
Mice at 0, 1, 3, 7, 14, 21 and 42 days after transplantation (four randomly chosen mice at each time point) were anesthetized with pentobarbital sodium (50 mg/kg body weight, i.p.) and euthanized by exsanguination. […]
From the proximal end, the last section with the cuff tube was counted as #0. […]
as §1

[2] = Senexin B, concentration not given

N#Cc1ccc2ncnc(NCCc3ccccc3)c2c1 [Senexin A]
Sca-1+ cell differentiation into SMCs ([1]; local Senexin A, 7 days): inhibited
Sca-1+ cell proliferation (Sca-1+ VSCs; Senexin A 2.5 μM, growth curve 8 days): suppressed
rat aortic SMC (RASMC) growth (rat aortic SMCs (RASMCs); Senexin A 2.5 μM, 24 h, 10% FBS, passage 32): without affecting
neointimal formation in vein isografts (jugular vein isografts; Senexin A (3 μmon) peri-vascular in Pluronic F-127 gel immediately after transplantation, 4 weeks): suppressed neointimal formation
duration of inhibitory effect on neointimal formation in vein grafts (jugular vein isografts; short-term peri-vascular Senexin A, after transplantation): 100 days

CN1CCN(C(=O)c2ccc3cc(CCNc4ncnc5ccc(C#N)cc45)ccc3c2)CC1 [Senexin B]
Sca-1+ cell differentiation into SMCs ([1]; Senexin B 20 mg/kg/d intragastric from 3 days prior, 14 and 28 days): inhibited
Sca-1+ cell growth (Sca-1+ VSCs; [2]): inhibited
SMC proliferation (rat aortic SMCs (RASMCs); [2]): had no impact
neointimal formation in vein isografts (jugular vein isografts; Senexin B 20 mg/kg/d intragastric, started 3 days prior to transplantation, 4 wk): suppressed neointimal formation
